Test results from US20030134899A1, “Pharmaceutical combination of bicalutamide and tamoxifen for providing an anti-androgenic effect and an anti-oestrogenic effect” (priority 2002, published 2003).

Tests used:
free testosterone = assay: Human clinical trial: free testosterone concentrations in healthy male volunteers; type: in vivo
Excerpt: Key Inclusion Criteria: Male, aged 65 years or above showing no clinically significant abnormalities in routine haematological and biochemical tests and having endocrinology and prostate specific antigen (PSA) results within normal limits. Key Exclusion Criteria: Previous inclusion in a clinical trial using CASODEXTM; concurrent treatment with any drugs with the exception of paracetomol; history or presence of any testicular abnormality; history or presence of gastrointestinal, hepatic or renal disease, or other condition known to interfere with the absorption, distribution, metabolism or excretion of drugs; a clinically significant illness within 2 weeks of trial commencement; definite or suspected personal or family history of significant adverse drug reactions or any hypersensitivity to CASODEXTM or […]; treatment within the previous 3 months with any drugs known to have a well-defined potential for hepatotoxicity or hepatic interaction. Dosage: The CASODEXTM was administered daily at a dose of 150 mg and the […] was administered daily at a dose of 20 mg. All treatments were in tablet form and taken once daily. Daily treatment with CASODEXTM plus […] was for 6 weeks, this period being selected as the minimum time to attain steady-state plasma concentrations for the drugs. Another set of volunteers were administered CASODEXTM alone at a daily dose of 150 mg for 4 weeks. All treatments were in tablet form and taken once daily. Key Assessment: Free testosterone concentrations were measured during the course of the trial.

testosterone = conditions: cited from earlier work
testosterone, LH = conditions: cited from earlier work

| Compound | Free testosterone, ratio to Day 1 (free testosterone; Day 29, CASODEX alone 150 mg daily for 4 weeks) | Free testosterone concentration, gmean (free testosterone; Day 29, CASODEX alone 150 mg daily for 4 weeks, n=7, pre-dose Day 1 baseline gmean 0.048) [nmol/L] | Increase in mean free testosterone concentration (free testosterone; by the end of the treatment period (4 weeks), CASODEX alone 150 mg daily) [%] | Increase in mean free testosterone concentration (testosterone; after 24 weeks of daily 150 mg CASODEX alone, prostate cancer (Verhelst et al 1994)) [%] | Change of basal level of total testosterone (testosterone; single agent therapy in humans (Blackledge et al 1996)) | Effect on mean serum testosterone, oestradiol, LH levels, LH pulse frequency and amplitude (testosterone, LH; 13 normal men, tamoxifen for 6 weeks (Spijkstra et al 1988)) | Effect on serum testosterone levels (testosterone, LH; tamoxifen administration to men (Lewis-Jones et al 1987)) | Effect on testosterone and LH (testosterone, LH; tamoxifen intake in adult men (Comhaire et al 1995)) | Effect on basal LH, FSH and testosterone levels (testosterone, LH; three months' treatment, normogonadotrophic oligozoospermic men (van Bergeijk et al 1986)) |
| --- | --- | --- | --- | --- | --- | --- | --- | --- | --- |
| CC(O)(CS(=O)(=O)c1ccc(F)cc1)C(=O)Nc1ccc(C#N)c(C(F)(F)F)c1 (stereo not drawn) [CASODEX™, 4′-cyano-α′,α′,α′-trifluoro-3-(4-fluorophenylsulphonyl)-2-hydroxy-2-methylpropiono-m-toluidide] | 1.58 | 0.076 | 58 | 57 | approximate doubling | – | – | – | – |
| CC/C(=C(\c1ccccc1)c1ccc(OCCN(C)C)cc1)c1ccccc1 [tamoxifen, (Z)-2-[p-(1,2-diphenylbut-1-enyl)phenoxy]ethyldimethylamine] | – | – | – | – | – | An increase | marked elevation | increase testosterone and LH | stimulated basal LH, FSH and testosterone levels |
